From ChEMBL document CHEMBL5346934 (J Med Chem, 2023)
In brackets after ≈: the same amount, converted by molar mass.

Legend:
[1] = system: Variola virus; experiment: Antiviral activity against Variola virus 7124 infected in African green monkey BSC-1 cells; assay type: functional, organism-based; conditions: Variola virus, 7124, BSC-1
[2] = system: Cowpox virus; experiment: Antiviral activity against Cowpox virus infected in African green monkey BSC-1 cells; assay type: functional, organism-based
[3] = system: Vaccinia virus; experiment: Antiviral activity against Vaccinia virus infected in African green monkey BSC-1 cells; assay type: functional, organism-based, Orthopoxvirus vaccinia; conditions: Orthopoxvirus vaccinia, BSC-1
[4] = system: Vaccinia virus; experiment: Antiviral activity against Vaccinia virus VG9 infected in African green monkey BSC-1 cells; assay type: functional, organism-based, Orthopoxvirus vaccinia; conditions: Orthopoxvirus vaccinia, VG9, BSC-1
[5] = system: Monkeypox virus; experiment: Antiviral activity against Monkeypox virus infected in African green monkey BSC-1 cells; assay type: functional, organism-based
[6] = system: Vaccinia virus; experiment: Antiviral activity against Vaccinia virus Copenhagen infected in human HFF cells assessed as reduction in viral replication measured after 3 days; assay type: functional, organism-based; conditions: Orthopoxvirus vaccinia, 72 h
[7] = system: Vaccinia virus; experiment: Antiviral activity against Cowpox virus Brighton infected in human HFF cells assessed as reduction in viral replication measured after 3 days; assay type: functional, organism-based; conditions: Orthopoxvirus vaccinia, 72 h
[8] = system: Cowpox virus; experiment: Antiviral activity against Cowpox virus Brighton infected in Vero cells measured after 4 days by colorimetric assay; assay type: functional, organism-based; conditions: 96 h
[9] = system: Variola virus; experiment: Antiviral activity against Variola virus 7124 infected in monkey LLC-MK2 cells; assay type: functional, organism-based; conditions: Variola virus, 7124, LLC-MK2
[10] = system: Vaccinia virus; experiment: Antiviral activity against Vaccinia virus infected in human HFF cells; assay type: functional, organism-based; conditions: Orthopoxvirus vaccinia
[11] = system: Human alphaherpesvirus 2; experiment: Antiviral activity against Herpes simplex virus 2; assay type: functional, organism-based
[12] = system: Monkeypox virus; experiment: Antiviral activity against Monkeypox virus Zr-599 infected in African green monkey Vero E6 cells assessed as reduction in plaque formation measured after 72 hrs by microscopic analysis; assay type: functional, organism-based; conditions: Zr-599, Vero C1008, 72 h
[13] = system: Vaccinia virus; experiment: Antiviral activity against Vaccinia virus infected in African green monkey Vero cells incubated for 24 hrs; assay type: functional, organism-based; conditions: Orthopoxvirus vaccinia
[14] = system: Vaccinia virus; experiment: Antiviral activity against wild type Vaccinia virus infected in human HFF cells assessed as reduction in viral replication measured after 5 days by microscopic analysis; assay type: functional, organism-based; conditions: Orthopoxvirus vaccinia, 120 h
[15] = system: Vaccinia virus; experiment: Antiviral activity against Vaccinia virus infected in African green monkey Vero cells; assay type: functional, organism-based; conditions: Orthopoxvirus vaccinia
[16] = system: Vaccinia virus; experiment: Antiviral activity against Vaccinia virus infected in human HFF cells measured after 4 days by colorimetric assay; assay type: functional, organism-based; conditions: Orthopoxvirus vaccinia, 96 h
[17] = system: Vaccinia virus; experiment: Antiviral activity against Vaccinia virus infected in African green monkey BSC-1 cells incubated for 24 hrs by microscopic analysis; assay type: functional; conditions: Orthopoxvirus vaccinia
[18] = system: Vaccinia virus; experiment: Antiviral activity against Vaccinia virus infected in Vero cells measured after 4 days by colorimetric assay; assay type: functional, organism-based; conditions: Orthopoxvirus vaccinia, 96 h
[19] = system: Monkeypox virus; experiment: Antiviral activity against Monkeypox virus V79-1-005 infected in Vero cells measured after 4 days by colorimetric assay; assay type: functional, organism-based; conditions: V79-1-005, Vero, 96 h
[20] = system: Ectromelia virus; experiment: Antiviral activity against ectromelia virus K-1 infected in Vero cells measured after 4 days by colorimetric assay; assay type: functional, organism-based; conditions: K-1, Vero, 96 h

O=C1c2c(O)ccc(O)c2C(=O)c2c(NCCNCCO)ccc(NCCNCCO)c21 [MITOXANTRONE]
EC50 [1]: 250 nM | EC50 [2]: 250 nM | EC50 [3]: 500 nM | EC50 [4]: 700 nM | EC50 [5]: 800 nM

CN1C(=O)/C(=N\NC(N)=S)c2ccccc21 [METHISAZONE]
EC50 [6]: 3300 nM | EC50 [7]: 14000 nM

CCCCCCCCCCCCCCCCOCCCOP(=O)(O)CO[C@H](CO)Cn1ccc(N)nc1=O [BRINCIDOFOVIR]
EC50 [8]: 600 nM

Nc1nc(=O)n([C@@H]2C=C(CO)[C@@H](O)[C@H]2O)cc1F
EC50 [9]: 510 nM

NC(CSC1(c2ccc(Cl)cc2)c2ccccc2-c2ccccc21)C(=O)O (stereo not drawn)
IC50 [10]: 47500 nM | IC50 [11]: 34800 nM

OC(c1cc(C(F)(F)F)nc2c(C(F)(F)F)cccc12)C1CCCCN1 (stereo not drawn) [MEFLOQUINE]
EC50 [12]: 5190 nM

CCNC(=O)OCC12CC3CC(CC(C3)C1)C2
EC50 [13]: 14800 nM

CC(=O)Oc1ccccc1C(=O)Nc1ncc([N+](=O)[O-])s1 [NITAZOXANIDE]
EC50 [14]: 1950 nM

O=C1C(O)=C([C@H]2CC[C@H](c3ccc(Cl)cc3)CC2)C(=O)c2ccccc21 [ATOVAQUONE]
EC50 [12]: 520 nM

Oc1ccc(Cl)cc1Sc1cc(Cl)ccc1O [FENTICLOR]
IC50 [10]: 5700 nM | IC50 [11]: 2400 nM

CC1(C)[C@@H]2CC[C@@]1(C)[C@H](NC(=O)CCN1CCOCC1)C2
IC50 [15]: 7470 nM

O[C@H]1[C@H]2c3cc4c(cc3CN3CCC(=C[C@@H]1O)[C@H]23)OCO4 [LYCORINE]
EC50 [1]: 5000 nM

NC(=O)c1cn([C@@H]2O[C@H](CO)[C@@H](O)[C@H]2O)c2ncnc(N)c12 [SANGIVAMYCIN]
EC50 [16]: 65 nM

Nc1ncnc2c1ncn2[C@@H]1C=C(CO)[C@@H](O)[C@H]1O [NEOPLANOCIN A]
EC50 [9]: 100 nM

CCCCCCCCNCCC[C@@H](C)[C@H]1CC[C@H]2[C@@H]3[C@H](OCCCN)C[C@@H]4C[C@H](OCCCN)CC[C@]4(C)[C@H]3C[C@H](OCCCN)[C@]12C
EC90 [17]: 9150 nM

NC(=S)N/N=C1\C(=O)Nc2ccccc21
EC50 [6]: 14000 nM | EC50 [7]: 60000 nM

O=C(NNC(=O)C1C2C=CC(C3CC23)C1C(=O)O)c1ccccc1O (stereo not drawn)
EC50 [18]: 0.032 µg/mL (≈ 0.0935 µM) | EC50 [19]: 0.153 µg/mL (≈ 0.447 µM) | EC50 [20]: 0.54 µg/mL (≈ 1.58 µM)

Nc1ccn([C@@H]2C=C(CO)[C@@H](O)[C@H]2O)c(=O)n1
EC50 [9]: 30 nM
